# Measurements reported in US20200079765A1, “SUBSTITUTED HETEROARYL PYRROLONES AND SALTS THEREOF AND USE THEREOF AS HERBICIDAL ACTIVE SUBSTANCES” (Bayer CropScience Aktiengesellschaft, priority 2016, published 2020).
# Key:
# [1] = target: T1, photosystem II (PS II) (Spinacia oleracea, UniProt P69560); test: Measurement of the PS II activity in thylakoid membranes (DCPIP reduction, Experimental Part 3, Table E1); assay type: biochemical; conditions: spinach thylakoid membranes
# T1 construct: the chloroplasts were osmotically ruptured and the thylakoid membranes were then obtained by centrifugation; from tissue; host or cells: thylakoid membranes from fresh spinach leaves
# Protocol: Cooled fresh spinach leaves were comminuted and homogenized in 50 mM phosphate buffer, pH 6.8. 10 mM KCl, 0.34 M sucrose (sucrose buffer) (blender, 1 g of plant material/ml). The homogenate was subsequently filtered through 4 layers of Miracloth and the chloroplasts were isolated by centrifugation, i.e. 10 min of centrifugation at 4400×g (4° C.). The sediment was suspended in 25 ml of sucrose buffer and re-centrifuged for 10 min at 4400×g (4° C.). The sediment was then suspended in 40 ml of 50 mM phosphate buffer, pH 6.8, 10 mM KCl, without sucrose. In this step, the chloroplasts were osmotically ruptured and the thylakoid membranes were then obtained by centrifugation (10 min, 4400×g, 4° C.). The membrane sediment was finally suspended in about 20 ml of 50 mM phosphate buffer, pH 6.8, 10 mM KCl. Following protein determination and activity determination, the membrane suspension was divided into aliquots and frozen in liquid nitrogen. The aliquots were stored at −80° C. Under these conditions, the photosystem II preparation was storage stable for at least three months. The activity determination of photosystem II (PS II) was then carried out using the following test principle: The electron transfer from PS II to an artificial electron acceptor, 2,6-dichlorophenolindophenol (DCPIP), was measured with exposure to light. The concentration of the blue oxidized form of DCPIP was determined spectrophotometrically at wavelength λ=595 nm. […] The activity determination was carried out in microtiter plates (96 cavities) in a reaction volume of 200 μl. Here, 155 μl of dilute membrane suspension were initially charged in 50 mM of phosphate buffer, pH 6.8, 10 mM KCl. Depending on the activity of the PS II preparation, the dilution was adjusted such that the measurement of the decrease in absorption (λ=595 nm) was linear for at least 10 min. In each case 5 μl solution of the test compounds of a concentration of 100 μM in DMSO were added to the enzyme suspension; controls contained 5 μl DMSO; the final concentration of DMSO in the reaction batch was thus 2.5% (v/v); this concentration had no adverse effect on the enzymatic activity. On each microtiter plate, a known PS II inhibitor, for example metribuzin, was used as standard, which allowed the quality of the PS II test to be assessed. The reaction was started by addition of 40 μl DCPIP solution (600 μM in distilled water); the final concentration of DCPIP was 120 μM. Measurement of absorption was carried out over a period of 10 min at 22° C. and with exposure to light. Using metribuzin as comparative substance, the results for the efficacy of the compounds of the general formula (I) at 100 μM are stated in the table below using the following classification: ++++ (inhibition≥90%), +++ (90%>inhibition≥70%), ++ (70%>inhibition≥50%), + (50%>inhibition≥30%).
# Effects of selected compounds of the general formula (I) according to the following table E1: […]
# [2] = system: Abutilon theophrasti; test: Herbicidal post-emergence action (Experimental Part 2, C); assay type: in vivo; conditions: post-emergence (Part 2), rated visually after about 3 weeks
# Protocol: (§1) Seeds of mono- and dicotyledonous weed plants were placed in plastic pots in sandy loam soil (doubly sown with in each case one species of mono- or dicotyledonous weed plants per pot), covered with soil and cultivated in a greenhouse under controlled growth conditions. 2 to 3 weeks after sowing, the test plants were treated at the one-leaf stage. The compounds of the invention, formulated in the form of wettable powders (WP) or as emulsion concentrates (EC), were applied onto the green parts of the plants as aqueous suspension or emulsion with addition of 0.5% additive at a water application rate of 600 liters per hectare (converted). After the test plants had been kept in the greenhouse under optimum growth conditions for about 3 weeks, the activity of the preparations was rated visually in comparison to untreated controls. For example, 100% activity=the plants have died, 0% activity=like control plants. Tables C1 to C8 below show the effects of selected compounds of the general formula (I) according to Tables I.1 to I.116 on various harmful plants and an application rate corresponding to 1280 g/ha or 320 g/ha, which were obtained by the experimental procedure mentioned above.
# [3] = system: Amaranthus retroflexus; test: as above; assay type: in vivo; conditions: post-emergence (Part 2), rated visually after about 3 weeks
# Protocol: as §1
# [4] = system: Matricaria inodora; test: as above; assay type: in vivo; conditions: post-emergence (Part 2), rated visually after about 3 weeks
# Protocol: as §1
# [5] = system: Setaria viridis; test: as above; assay type: in vivo; conditions: post-emergence (Part 2), application rate 1280 g/ha, rated visually after about 3 weeks
# Protocol: as §1
# [6] = system: Stellaria media; test: as above; assay type: in vivo; conditions: post-emergence (Part 2), rated visually after about 3 weeks
# Protocol: as §1
# [7] = system: Abutilon theophrasti; test: Herbicidal pre-emergence action (Experimental Part 2, D); assay type: in vivo; conditions: pre-emergence (Part 2), application rate 1280 g/ha, scored visually after about 3 weeks
# From the text: (§2) Seeds of mono- and dicotyledonous weed plants were placed in plastic pots in sandy loam soil (doubly sown with in each case one species of mono- or dicotyledonous weed plants per pot) and covered with soil. The compounds of the invention, formulated in the form of wettable powders (WP) or as emulsion concentrates (EC), were then applied onto the surface of the covering soil as aqueous suspension or emulsion with addition of 0.5% additive at a water application rate of 600 liters per hectare (converted). After the treatment, the pots are placed in a greenhouse and kept under good growth conditions for the trial plants. After about 3 weeks, the effect of the preparations was scored visually in comparison with untreated controls as percentages. For example, 100% activity=the plants have died, 0% activity=like control plants. Tables D1 to D8 below show the effects of selected compounds of the general formula (I) according to Tables I.1 to I.116 on various harmful plants and an application rate corresponding to 1280 g/ha or 320 g/ha, which were obtained by the experimental procedure mentioned above.
# [8] = system: Amaranthus retroflexus; test: as above; assay type: in vivo; conditions: pre-emergence (Part 2), scored visually after about 3 weeks
# From the text: as §2
# [9] = system: Matricaria inodora; test: as above; assay type: in vivo; conditions: pre-emergence (Part 2), application rate 1280 g/ha, scored visually after about 3 weeks
# From the text: as §2
# [10] = system: Amaranthus retroflexus; test: Pre-emergence herbicidal action (Experimental Part 1, B); assay type: in vivo; conditions: application rate 1280 g/ha, scored visually after about 3 weeks
# From the text: Seeds of monocotyledonous and dicotyledonous weed plants and crop plants were placed in plastic or organic planting pots and covered with soil. The compounds of the invention, formulated in the form of wettable powders (WP) or as emulsion concentrates (EC), were then applied onto the surface of the covering soil as aqueous suspension or emulsion with addition of 0.5% additive at a water application rate of 600 l/ha (converted). After the treatment, the pots were placed in a greenhouse and kept under good growth conditions for the test plants. After about 3 weeks, the effect of the preparations was scored visually in comparison with untreated controls as percentages. For example, 100% activity=the plants have died, 0% activity=like control plants. Tables B1 to B14 below show the effects of selected compounds of the general formula (I) according to Tables I.1 to I.116 on various harmful plants and an application rate corresponding to 1280 g/ha or 320 g/ha, which were obtained by the experimental procedure mentioned above.
# [11] = system: Poa annua; test: Herbicidal post-emergence action (Experimental Part 2, C); assay type: in vivo; conditions: post-emergence (Part 2), rated visually after about 3 weeks
# Protocol: as §1
# [12] = system: Poa annua; test: Herbicidal pre-emergence action (Experimental Part 2, D); assay type: in vivo; conditions: pre-emergence (Part 2), scored visually after about 3 weeks
# From the text: as §2
# [13] = system: Setaria viridis; test: as above; assay type: in vivo; conditions: pre-emergence (Part 2), application rate 1280 g/ha, scored visually after about 3 weeks
# From the text: as §2
# [14] = system: Stellaria media; test: as above; assay type: in vivo; conditions: pre-emergence (Part 2), scored visually after about 3 weeks
# From the text: as §2
# [15] = system: Lolium rigidum; test: as above; assay type: in vivo; conditions: pre-emergence (Part 2), application rate 1280 g/ha, scored visually after about 3 weeks
# From the text: as §2
smiles,measurement,setting,value
CC1=CC(=O)N(c2cc(-c3ccccc3)ns2)C1O (centres unmarked) [I.1-86],Effect (inhibition of PS II activity),[1],++++ (inhibition≥90%)
CC1=CC(=O)N(c2cscn2)C1O (centres unmarked) [I.1-91],"Abutilon theophrasti, herbicidal activity",[2]; application rate 1280 g/ha,100%
same,"Amaranthus retroflexus, herbicidal activity",[3]; application rate 320 g/ha,100%
same,"Matricaria inodora, herbicidal activity",[4]; application rate 1280 g/ha,100%
same,"Setaria viridis, herbicidal activity",[5],100%
same,"Stellaria media, herbicidal activity",[6]; application rate 1280 g/ha,100%
same,"Abutilon theophrasti, herbicidal activity",[7],100%
same,"Amaranthus retroflexus, herbicidal activity",[8]; application rate 320 g/ha,100%
same,"Matricaria inodora, herbicidal activity",[9],90%
CC(=O)OC1C(C)=CC(=O)N1c1cc(C(C)(C)C)no1 (centres unmarked) [I.3-290],"Amaranthus retroflexus, herbicidal activity",[10],90%
same,"Abutilon theophrasti, herbicidal activity",[2]; application rate 1280 g/ha,100%
same,"Matricaria inodora, herbicidal activity",[4]; application rate 1280 g/ha,90%
same,"Poa Annua, herbicidal activity",[11]; application rate 1280 g/ha,100%
same,"Abutilon theophrasti, herbicidal activity",[7],100%
same,"Amaranthus retroflexus, herbicidal activity",[8]; application rate 1280 g/ha,90%
same,"Matricaria inodora, herbicidal activity",[9],100%
same,"Poa Annua, herbicidal activity",[12]; application rate 1280 g/ha,90%
same,"Setaria viridis, herbicidal activity",[13],90%
same,"Stellaria media, herbicidal activity",[14]; application rate 1280 g/ha,100%
CC(=O)OC1C(C)=CC(=O)N1c1cc(C(F)(F)F)c(Cl)cn1 (centres unmarked) [I.3-451],"Abutilon theophrasti, herbicidal activity",[2]; application rate 320 g/ha,100%
same,"Amaranthus retroflexus, herbicidal activity",[3]; application rate 1280 g/ha,100%
same,"Matricaria inodora, herbicidal activity",[4]; application rate 320 g/ha,90%
same,"Poa Annua, herbicidal activity",[11]; application rate 320 g/ha,100%
same,"Stellaria media, herbicidal activity",[6]; application rate 320 g/ha,100%
same,"Lolium rigidum, herbicidal activity",[15],90%
same,"Poa Annua, herbicidal activity",[12]; application rate 320 g/ha,90%
same,"Setaria viridis, herbicidal activity",[13],100%
same,"Stellaria media, herbicidal activity",[14]; application rate 320 g/ha,100%
same,Effect (inhibition of PS II activity),[1],+++ (90%>inhibition≥70%)
CC1=CC(=O)N(c2cc(C(C)(C)C)n(C)n2)C1O (centres unmarked) [I.1-315],Effect (inhibition of PS II activity),[1],++++ (inhibition≥90%)
CC1=CC(O)N(c2cc(C)ns2)C1=O (centres unmarked) [I.2-72],Effect (inhibition of PS II activity),[1],++ (70%>inhibition≥50%)
"CSc1nnc(C(C)(C)C)c(=O)n1N [metribuzin, reference compound]",Effect (inhibition of PS II activity),[1],++++ (inhibition≥90%)
